According to US20260014085A1, “MILK DERIVED EXOSOMES AND USES THEREOF” (VIRGINIA TECH INTELLECTUAL PROPERTIES, INC., priority 2022, published 2026):

Key:
[1] = tested on: B5 Clone (High Cx43) MDCK cells; test: mEV uptake in scratch wound model, B5 Clone (High Cx43) MDCK; assay type: cell-based, canine
Method: Cells are cultured to confluency, then scratched in low serum conditions (1% NCS), rinsed, and supplied fresh medium with 20 μg/mL CTDR-Tagged mEV's. […] (FIG. 4B) Unwounded Parent (Low Cx43) MDCKs; (FIG. 4C) Wounded Parent (Low Cx43) MDCKs; (FIG. 4D) Unwounded B5 Clone (High Cx43) MDCKs; (FIG. 4E) Wounded B5 Clone (High Cx43) MDCKs. […] (FIG. 4G) Wounded B5 Clone (High Cx43) MDCKs provided mEV's; (FIG. 4H) Wounded B5 Clone (High Cx43) MDCKs provided mEV's and Gap27, a Connexin inhibitor.
FIG. 5A-5C—Milk-Derived Extracellular Vesicle targeting capabilities to high Cx43 expressing B5 Clone MDCKS are completely eliminated via use of exogenous Apyrase. Cells are cultured to confluency, then scratched in low serum conditions (1% NCS), rinsed, and supplied fresh medium with 20 μg/mL CTDR-Tagged mEV's with or without 100 uM Apyrase. (FIG. 5A) Wounded B5 Clone (High Cx43) given CTDR-Tagged mEV's; (FIG. 5B) Wounded B5 Clone (High Cx43) given CTDR tagged mEV's with 100 µM Apyrase.
The associated bar graph for particle count analysis is shown above in FIG. 4A. […] This insinuates that mEV uptake by cells is mediated by Cx43 in both unwounded and wounded situations, with unwounded B5 clone cells experiencing similar uptake levels to that of wounded Parent Lampe cells (FIG. 4A). Applicant then tested for the mechanism of uptake in these cells—B5 clone cells were scratch wounded and given fluorescently tagged mEV's, then some were also provided with Gap27 (FIG. 4F), a known Connexin channel blocker. When co-incubated with Gap27 (D2), mEV uptake was blocked by over 25% (FIG. 4F) when compared to those untreated. […] Another mechanism of uptake of mEV's in a wounded environment that Applicant has discovered is ATP (FIG. 5A-5C).
Small extracellular vesicles known as exosomes (nanovesicles of less than or equal to 150 nm diameter) are secreted by nearly all cell types and are thought to have key assignments in intercellular signaling. Reports that exosomes evade immune detection, show propensity to cross tissue boundaries (e.g., the blood-brain barrier) and can be orally administered has also attracted increasing interest in therapeutic applications, including as drug delivery devices. Applicant recently developed a method for large-scale purification of bovine milk-derived extracellular vesicles (Marsh et al., Nanotheranostics. 2021 Jul. 5; 5(4):488-498. doi: 10.7150/ntno.62213. eCollection 2021). […] Girao and co-workers determined that Connexin 43 (Cx43) is present in exosomes derived from cultured cells expressing Cx43, where this gap junction protein has assignments in cellular uptake of exosomal cargo (Soares et al., Sci Rep. 2015 Aug. 19; 5:13243. doi: 10.1038/srep13243). […]

[2] = tested on: B5 Clone (High Cx43) MDCK cells; test: Scratch wound closure (migration index), B5 Clone (High Cx43) MDCK; assay type: cell-based, canine; details: B5 Clone MDCKs, 100 uM Apyrase
Method: FIG. 7A-7L—Milk-Derived Extracellular Vesicles contain endogenous bioactive capabilities in a Scratch-Wounded model of wound healing in Cx43-variable MDCK cells. Cells are cultured to confluency, then scratched in low serum conditions (1% NCS), rinsed, and supplied fresh medium with 20 μg/mL mEV's or 20 uL Vehicle (HEPES buffer). (FIG. 7A) Quantification of wound closure using ImageJ border zone analysis plugin software. Scratches are scanned and imaged at t=0 and scratch size is quantified, then after 8 hours, cells are stopped, fixed and imaged again, then final scratch size is quantified. Migration index is calculated by subtracting the final area from the starting and dividing by the average of vehicle control samples, giving a value of 1.0 for vehicle control. mEV's contain endogenous bioactivity that is Cx43 Dependent, with over 8× healing potential when cells contain enhanced Cx43 levels. […] (FIG. 7G) Quantification of wound closure using ImageJ border zone analysis plugin software. Scratches are scanned and imaged at t=0 and scratch size is quantified, then after 8 hours, cells are stopped, fixed and imaged again, then final scratch size is quantified. […]

Apyrase
mEV expression with added apyrase ([1]; wounded B5 Clone (High Cx43) MDCKs, 100 uM Apyrase): significant and complete elimination | reduction in mEV uptake with apyrase ([1]; wounded B5 Clone cells, co-incubated with 100 uM apyrase): > 95% | mEV wound healing capabilities with exogenous Apyrase [2]: heavily reduced

Gap27: a known Connexin channel blocker (TEKTIFIIFML; UniProt P17302 204-214, looked up, fragment)
mEV uptake blocked when co-incubated with Gap27 ([1]; scratch wounded B5 clone cells, compared to untreated): over 25% | mEV expression with added Gap27 ([1]; wounded B5 Clone (High Cx43) MDCKs): statistical drop
